ChEMBL document CHEMBL4033647, “Novel coumarin- and quinolinone-based polycycles as cell division cycle 25-A and -C phosphatases inhibitors induce proliferation arrest and apoptosis in cancer cells” (Eur J Med Chem, 2017)
Activity calls are given as the source filed them. The rule behind the calls is not given here.

What was measured:
[1] = molecular target: T1, M-phase inducer phosphatase 1 (Homo sapiens, UniProt P30304); assay: Inhibition of recombinant human full length GST-tagged CDC25A expressed in Escherichia coli BL21-DE3 pLysS using 3-O-methylfluorescein phosphate as substrate after 2 hrs by fluorimetric analysis
T1 sequence (P30304 whole entry): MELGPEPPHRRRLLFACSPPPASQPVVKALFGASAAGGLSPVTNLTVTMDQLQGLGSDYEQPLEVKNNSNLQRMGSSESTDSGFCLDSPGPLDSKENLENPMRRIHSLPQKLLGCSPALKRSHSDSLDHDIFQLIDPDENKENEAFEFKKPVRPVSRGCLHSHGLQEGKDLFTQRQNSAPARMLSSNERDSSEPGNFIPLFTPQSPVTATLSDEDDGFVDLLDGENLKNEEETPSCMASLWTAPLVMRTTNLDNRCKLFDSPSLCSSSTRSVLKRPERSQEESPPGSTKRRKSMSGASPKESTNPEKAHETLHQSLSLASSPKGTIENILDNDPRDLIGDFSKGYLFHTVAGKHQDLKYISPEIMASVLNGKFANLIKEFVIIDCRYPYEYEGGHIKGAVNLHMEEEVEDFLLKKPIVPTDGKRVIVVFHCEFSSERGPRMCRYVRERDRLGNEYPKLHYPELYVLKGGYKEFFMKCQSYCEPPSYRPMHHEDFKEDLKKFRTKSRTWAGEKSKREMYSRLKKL

[2] = molecular target: T2, M-phase inducer phosphatase 3 (Homo sapiens, UniProt P30307); assay: Inhibition of recombinant human full length GST-tagged CDC25C expressed in Escherichia coli BL21-DE3 pLysS using 3-O-methylfluorescein phosphate as substrate after 2 hrs by fluorimetric analysis
T2 sequence (P30307 whole entry): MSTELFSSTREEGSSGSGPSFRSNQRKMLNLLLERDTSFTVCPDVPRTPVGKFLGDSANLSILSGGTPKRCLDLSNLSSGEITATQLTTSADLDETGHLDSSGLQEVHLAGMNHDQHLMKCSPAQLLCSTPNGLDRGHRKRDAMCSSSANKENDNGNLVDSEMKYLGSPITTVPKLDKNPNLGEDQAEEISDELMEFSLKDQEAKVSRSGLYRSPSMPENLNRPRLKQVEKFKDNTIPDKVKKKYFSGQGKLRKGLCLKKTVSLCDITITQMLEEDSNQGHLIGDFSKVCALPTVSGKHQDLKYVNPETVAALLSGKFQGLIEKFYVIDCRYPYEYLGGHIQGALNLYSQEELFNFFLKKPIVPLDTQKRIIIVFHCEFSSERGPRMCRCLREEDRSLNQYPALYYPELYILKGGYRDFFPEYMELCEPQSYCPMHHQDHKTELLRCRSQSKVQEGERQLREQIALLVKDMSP

[3] = test system: A549; assay: Cytotoxicity against human A549 cells assessed as reduction in cell viability after 72 hrs by MTT assay; assay type: functional, cell-based; settings: A549, 72 h
[4] = test system: MCF7; assay: Cytotoxicity against human MCF7 cells assessed as reduction in cell viability after 72 hrs by MTT assay; assay type: functional, cell-based; settings: MCF7, 72 h
[5] = test system: PC-3; assay: Cytotoxicity against human PC3 cells assessed as reduction in cell viability after 72 hrs by MTT assay; assay type: functional, cell-based; settings: PC-3, 72 h
[6] = Cytotoxicity against human U373n cells assessed as reduction in cell viability after 72 hrs by MTT assay; assay type: functional, cell-based
[7] = test system: Hs 683; assay: Cytotoxicity against human Hs683 cells assessed as reduction in cell viability after 72 hrs by MTT assay; assay type: functional, cell-based; settings: Hs 683, 72 h
[8] = test system: SK-MEL-28; assay: Cytotoxicity against human SK-MEL-28 cells assessed as reduction in cell viability after 72 hrs by MTT assay; assay type: functional, cell-based; settings: SK-MEL-28, 72 h
[9] = organism: Homo sapiens; assay: Selectivity ratio of IC50 for recombinant human full length GST-tagged CDC25A expressed in Escherichia coli BL21-DE3 pLysS to IC50 for recombinant human full length GST-tagged CDC25C expressed in Escherichia coli BL21-DE3 pLysS
[10] = test system: A-431; assay: Decrease in CDC25C protein expression level in human A431 cell extract at 50 uM after 24 hrs by Western blot analysis; assay type: functional, cell-based
[11] = test system: A-431; assay: Cytotoxicity against human A431 cells assessed as reduction in cell viability after 24 hrs by MTT assay; assay type: functional, cell-based; settings: A-431, 24 h
[12] = test system: A-431; assay: Cell cycle arrest in human A431 cells assessed as accumulation at G1 phase at 10 uM after 24 hrs by propidium iodide staining based flow cytometric analysis (reference value: 53.04%); assay type: functional
[13] = test system: A-431; assay: Cell cycle arrest in human A431 cells assessed as accumulation at G1 phase at 50 uM after 24 hrs by propidium iodide staining based flow cytometric analysis (reference value: 53.04%); assay type: functional
[14] = test system: A-431; assay: Cell cycle arrest in human A431 cells assessed as accumulation at S phase at 10 uM after 24 hrs by propidium iodide staining based flow cytometric analysis (reference value: 17.33%); assay type: functional
[15] = test system: A-431; assay: Cell cycle arrest in human A431 cells assessed as accumulation at S phase at 50 uM after 24 hrs by propidium iodide staining based flow cytometric analysis (reference value: 17.33%); assay type: functional
[16] = test system: A-431; assay: Cell cycle arrest in human A431 cells assessed as accumulation at G2/M phase at 10 uM after 24 hrs by propidium iodide staining based flow cytometric analysis (reference value: 26.23%); assay type: functional
[17] = test system: A-431; assay: Cell cycle arrest in human A431 cells assessed as accumulation at G2/M phase at 50 uM after 24 hrs by propidium iodide staining based flow cytometric analysis (reference value: 26.23%); assay type: functional
[18] = test system: A-431; assay: Cell cycle arrest in human A431 cells assessed as accumulation at subG1 phase at 10 uM after 24 hrs by propidium iodide staining based flow cytometric analysis (reference value: 3.40%); assay type: functional
[19] = test system: A-431; assay: Cell cycle arrest in human A431 cells assessed as accumulation at subG1 phase at 50 uM after 24 hrs by propidium iodide staining based flow cytometric analysis (reference value: 3.40%); assay type: functional
[20] = test system: A-431; assay: Effect on CDC25C splice variant protein expression in human A431 cell extract at 50 uM after 24 hrs by Western blot analysis; assay type: functional, cell-based
[21] = test system: A-431; assay: Induction of apoptosis in human A431 cells assessed as PARP cleavage at 50 uM after 24 hrs by Western blot analysis; assay type: functional, cell-based
[22] = test system: A-431; assay: Induction of apoptosis in human A431 cells assessed as caspase-3 cleavage at 10 to 50 uM after 24 hrs by Western blot analysis; assay type: functional, cell-based
[23] = molecular target: T3, M-phase inducer phosphatase 3 (Homo sapiens) (UniProt P30307); settings: 10 to 50 uM
T3 sequence (whole entry): T2 sequence (P30307 whole entry)
Description: Inhibition of CDC25C in human A431 cells assessed as increase in CDK-mediated phosphorylation of histone H3 at Ser10 residues at 10 to 50 uM after 24 hrs by Western blot analysis

O=C1C=CC(=O)c2c1ccc1c2c(=O)oc2c3ccccc3ccc12
IC50 [1]: 1.5 µM
IC50 [2]: 0.1 µM
IC50 [3]: 70 µM
IC50 [4]: 7 µM
IC50 [5]: 75 µM
IC50 [6]: 55 µM
IC50 [7]: 4 µM
IC50 [8]: > 100 µM
Ratio IC50 [9]: 15

O=C1C=CC(=O)c2c1ccc1c2c(=O)[nH]c2c3ccccc3ccc12
IC50 [1]: 3.23 µM
IC50 [2]: 4.37 µM
IC50 [3]: 45 µM
IC50 [4]: 30 µM
IC50 [5]: 42 µM
IC50 [6]: 42 µM
IC50 [7]: 30 µM
IC50 [8]: 72 µM

O=C1C=CC(=O)c2c1ccc1c2c(=O)oc2ccc(Cl)cc21
IC50 [1]: 2.57 µM
IC50 [2]: 1.44 µM
IC50 [3]: 25 µM
IC50 [4]: 13 µM
IC50 [5]: 19 µM
IC50 [6]: 12 µM
IC50 [7]: 6 µM
IC50 [8]: 33 µM

O=C1C=CC(=O)c2c1ccc1c2c(=O)oc2cc(Cl)ccc21
Activity [10]: inactive
IC50 [1]: 1.61 µM
IC50 [2]: 0.77 µM
IC50 [3]: 3.2 µM
IC50 [4]: 2.8 µM
IC50 [5]: 4.4 µM
IC50 [6]: 3.7 µM
IC50 [7]: 1.2 µM
IC50 [8]: 7.8 µM
IC50 [11]: 29.2 µM
Activity [12]: 48.91%
Activity [13]: 53.78%
Activity [14]: 18.57%
Activity [15]: 16.24%
Activity [16]: 28.92%
Activity [17]: 25.91%
Activity [18]: 3.6%
Activity [19]: 4.07%
Activity [20]: inactive
Activity [21]: inactive
Activity [22]: inactive

O=C1C=CC(=O)c2c1ccc1c2c(=O)oc2cc(F)ccc21
IC50 [1]: 2.19 µM
IC50 [2]: 0.69 µM
IC50 [3]: 1 µM
IC50 [4]: 11 µM
IC50 [5]: 36 µM
IC50 [6]: 7 µM
IC50 [7]: 4 µM
IC50 [8]: 18 µM

Cn1c(=O)c2c3c(ccc2c2ccccc21)C(=O)C=CC3=O
IC50 [1]: 13 µM
IC50 [2]: 14.9 µM
IC50 [3]: 68 µM
IC50 [4]: 34 µM
IC50 [5]: 32 µM
IC50 [6]: 41 µM
IC50 [7]: 67 µM
IC50 [8]: 68 µM

O=C1C=CC(=O)c2c1ccc1c2c(=O)oc2ccc(F)cc21
IC50 [1]: 3.5 µM
IC50 [2]: 0.4 µM
IC50 [3]: 17 µM
IC50 [4]: 3 µM
IC50 [5]: 43 µM
IC50 [6]: 36 µM
IC50 [7]: 19 µM
IC50 [8]: 40 µM
Ratio IC50 [9]: 8.75

COc1ccc2c(c1)oc(=O)c1c3c(ccc12)C(=O)C=CC3=O
IC50 [1]: 2.88 µM
IC50 [2]: 0.98 µM
IC50 [3]: 30 µM
IC50 [4]: 9 µM
IC50 [5]: 31 µM
IC50 [6]: 16 µM
IC50 [7]: 24 µM
IC50 [8]: 31 µM

O=C1C=CC(=O)c2c1ccc1c2c(=O)[nH]c2ccccc21
Activity [10]: Active
IC50 [1]: 7.73 µM
IC50 [2]: 3.64 µM
IC50 [3]: 1.8 µM
IC50 [4]: 0.9 µM
IC50 [5]: 0.9 µM
IC50 [6]: 2.7 µM
IC50 [7]: 2.8 µM
IC50 [8]: 1.5 µM
Ratio IC50 [9]: 2
IC50 [11]: 8.2 µM
Activity [12]: 57.01%
Activity [13]: 53.93%
Activity [14]: 11.9%
Activity [15]: 6.98%
Activity [16]: 24.83%
Activity [17]: 26.28%
Activity [18]: 6.26%
Activity [19]: 12.81%
Activity [20]: Active
Activity [22]: inactive
inhibition [23]: Active
